Laboratory results from patent US20040127547A1, “Prodigiosin composition for the treatment of rheumatic arthritis” (priority 2001, published 2004).

How the values were obtained:
[1] = system: DBA/1 mouse with collagen-induced rheumatic arthritis; assay: Crisis level (clinical index) of collagen-induced rheumatic arthritis; assay type: in vivo
Method: 6 week-old male DBA/1 mouse supplied from Charles River Japan (Japan) was adapted until 8 to 12 week-old and then, used in the experiment. On the first day of the experiment, the mouse was administered subcutaneously with 100 μl of collagen/complete freund's adjuvant at its tail. The collagen/complete freund's adjuvant was prepared by mixing a solution of collagen (bovine type II) dissolved in 0.05 M acetic acid at a concentration of 2 mg/ml with complete freund's adjuvant at the same concentration. At 21st day of the experiment, 100 μg of collagen was intraperitoneally administered and at 28th day of the experiment, 40 μg of lipopolysaccharide was intraperitoneally administered to promote arthritis crisis. The crisis level of rheumatic arthritis was examined with the naked eye and expressed as a clinical index. That is, 0=none, 0.5=flushed and swollen toe, 1=mild crisis, 1.5=moderate crisis, 2 or more=severe crisis and joint stiffness. Four legs of the DBA/1 mouse were examined for their levels of arthritis crisis.
In order to confirm the therapeutic effect of prodigiosin on rheumatic arthritis, three types of experiments were performed according to the following strategies: (1) 10 mg/kg of prodigiosin was intraperitoneally administered every other day from the 29th day of the experiment, when rheumatic arthritis lesion was developed, to 65th day, the last day of the experiment; (2) 10 mg/kg of prodigiosin was intraperitoneally administered every other day from the 29th day of the experiment, when rheumatic arthritis lesion was developed, to 36th day of the experiment; and (3) 10 mg/kg of prodigiosin was intraperitoneally administered every other day from the 36th day of the experiment, when rheumatic arthritis was in progress, to 65th day, the last day of the experiment.
(§1) In this example, the DBA/1 mouse with collagen-induced rheumatic arthritis, prepared in Example 1, were administered intraperitoneally with 10 mg/kg of prodigiosin every other day from the 29th day of the experiment to 65th day of the experiment. The DBA/11 mouse treated with prodigiosin according to the above method and the DBA/1 mouse non-treated with prodigiosin were examined for their crisis level of rheumatic arthritis according to time.
as §1, with “order to investigate the change after suspension of administration of prodigiosin and the influence of prodigiosin on early rheumatic arthritis,” for “this example,”, “36th” for “65th”, “DBA/1” for “DBA/11”, “time. […] Accordingly, it is noted that prodigiosin has effects preventing and treating rheumatic arthritis.” for “time.”
In order to investigate the influence of prodigiosin on rheumatic arthritis which had developed and progressed, the DBA/1 mouse with collagen-induced rheumatic arthritis, prepared in Example 1, were administered intraperitoneally with 10 mg/kg of prodigiosin every other day from the 36th day to 65th day after starting the experiment. The DBA/1 mouse treated with prodigiosin according to the above method and the DBA/1 mouse non-treated with prodigiosin were examined for their crisis level of rheumatic arthritis according to time.

[2] = system: DBA/1 mouse with collagen-induced rheumatic arthritis; assay: Laboratory test: hematoxylin and eosin staining of interphalangeal and knee joints; assay type: in vivo; conditions: H&E staining
Excerpt: The ininter phalangeal joints and knee joints from DBA/1 mouse of the prodigiosin-treated group and the control group, not treated with prodigiosin, in Example 3 were subjected to a laboratory test. The ininter phalangeal joints and knee joints were removed on the last day of the administration and stained with hematoxylin and eosin.

[3] = system: cytokines TNF-α, IL-1β, IL-6, IL-12, IL-2, IFN-γ, IL4, IL-10; assay: Cytokine expression levels in spleen cells by RT-PCR; assay type: in vivo; conditions: spleen cells of treated DBA/1 mouse, 10 mg/kg i.p. every other day
Method: The spleen cells were removed from DBA/1 mouse of the prodigiosin-treated group and the control group, not treated with prodigiosin, in Example 3 and subjected to RNA separation. Then, the expression levels of cytokine were measured using RT-PCR (Reverse transcriptase polymerase chain reaction). The expression levels of inflammatory cytokines such as TNF-α, IL-1β, IL-6, IL-12; cytokines derived from Th1 cells such as IL-2, IFN-γ; cytokines derived from Th2 cells such as IL4, IL-10 were measured.

NOD mouse = conditions: cited from earlier work
B-cell = conditions: cited from earlier work
[4] = system: transplantation rejection; conditions: in vivo; cited from earlier work
animal = conditions: 10 to 30 mg/kg for 16 weeks; cited from earlier work
T-cell = conditions: cited from earlier work

## CCCCCC1=C/C(=C/c2[nH]c(-c3ccc[nH]3)cc2OC)N=C1C [prodigiosin]
[1]; 10 mg/kg i.p. every other day from 29th to 36th day, after suspension of administration
  crisis level of rheumatic arthritis after suspension of administration: about 1
[1]; 10 mg/kg i.p. every other day from 29th to 36th day, by the 38th day
  crisis level of rheumatic arthritis by the 38th day: ≤ 0.5
[1]; 10 mg/kg i.p. every other day from 29th to 65th day, clinical index 0 to 8 (four legs)
  crisis level of rheumatic arthritis: ≤ 0.5
[1]; 10 mg/kg i.p. every other day from 36th to 65th day, at 36 day (start of administration)
  crisis level of rheumatic arthritis at 36 day: about 2
[1]; 10 mg/kg i.p. every other day from 36th to 65th day, progressive arthritis
  change of crisis level after 36 day: no more increase
[2]; groups of Example 3 (10 mg/kg i.p., 29th to 36th day)
  histology of interphalangeal joint and knee joint: Normal tissues
[2]; groups of Example 3
  joint destruction in the knee joint: not observed
  lymphocyte infiltration into the interphalangeal joint: not observed
[3]
  expression levels of cytokines (TNF-α, IL-1β, IL-6, IL-12, IL-2, IFN-γ, IL4, IL-10): reduced the expression levels of all kinds of cytokines
NOD mouse; 10 mg/kg intraperitoneally every other day
  diabetes crisis of the NOD mouse: completely suppressed
NOD mouse; NOD mouse
  insulitis (lymphocyte infiltration into pancreatic islet): suppressed insulitis
B-cell
  antibody production and proliferation of B-cell: does not inhibit
[4]
  effect on transplantation rejection: therapeutic effects
animal
  toxicity in animal: does not show toxicity
T-cell
  proliferation and activity of T-cell: strongly inhibit
T-cell; concentration where immunosuppression occurs
  toxicity at a concentration where immunosuppression occurs: not showing toxicity
